Reference: patent US5281585A, “Fibrinogen receptor antagonists for inhibiting aggregation of blood platelets” (Merck & Co., Inc., priority 1992, dated 1994)

Tests used:
platelet aggregation [1] = assay: In vivo activity in dogs: ex vivo platelet aggregation, oral administration; design: species or system dog; conditions: single oral administration of 2 mg/kg, for a period of eight hours
Description: (§1) The following protocols were used to determine in vivo activity in dogs of fibrinogen receptor antagonists of the present invention.
(§2) A mongrel dog of either sex (weighing 7.5 to 11.5 kg) is comfortably positioned in a nylon sling which exposes the legs and keeps the dog stationary. Five ml of blood is withdrawn from either saphenous or cephalic veins with a plastic syringe containing 0.5 ml of 3.8% citrate via a 19-gauge butterfly. An additional I ml of citrated blood is taken to measure whole blood platelet counts. Ex vivo platelet aggregations are done with the agonists ADP (10 μM) and collagen (10 μg/ml) both primed with 1μM epinephrine. Platelet-rich plasma (PRP) is obtained by centrifuging the blood at 150 x g for 5 minutes. Platelet counts are adjusted to 200,000/mm^3 with platelet-poor plasma.
Oral administration of a drug is done either as a gelatin capsule or a gastric lavage. For the gastric lavage method, 5 ml of the drug solution is administered to the dog through a feeding tube. Blood samples for ex vivo platelet aggregation are taken at the following time points: 0,20, 40, 70, 90, 150, 200, 250, 300, 350, 480 min. 24 hr. 30 hr, and 48 hr. At each time point, the remaining platelet-poor plasma is saved and frozen for drug levels. […]
(§3) In the oral and intravenous groups, blood collection times are recorded at each time point in order to determine drug plasma levels.

platelet aggregation [2] = assay: In vivo activity in dogs: ex vivo platelet aggregation, intravenous infusion; design: species or system dog; conditions: 10 μg/kg/min and 25 μg/kg/min
Description: as §1, §2
For the intravenous infusion, blood samples for ex vivo platelet aggregation are taken at the following time points: 0,30, 45, 60, 90 and 120 min into the infusion and 2,5, 15, 30, 60, 90, 120, 180, 240, 300, 360, and 420 minutes after the infusion stops. At each time point, the remaining platelet-poor plasma is saved and frozen for drug levels. The drug is infused for 120 minutes at a constant rate of 0.1 ml/min.
as §3

## O=C(O)CCNC(=O)CN1CCCC(CCC2CCNCC2)C1=O (stereo not drawn)
Platelet aggregation [1]
  % Inhibition of platelet aggregation: greater than 50%
Platelet aggregation [2]; during infusion
  Inhibition of platelet aggregation (% of control) during infusion: nearly complete
Platelet aggregation [2]; for several hours after infusion cessation
  Inhibition of platelet aggregation (% of control) after infusion cessation: partial inhibition
